Measured values reported in patent US20040132817A1, “Use of an histone deacetylase inhibitor for the treatment of diseases associated with an hpv infection” (priority 2001, published 2004).

Legend:
Format in all cases: cell-based, human
[1] = tested on: p27^KIP1; test: Western blot of p27^KIP1 in HeLa cells; conditions: 16 hours
Description: (§1) (A) Westem blot analysis. 50 μg of cellular protein were loaded on SDS-PAGE minigels. After electrotransfer, the filters were incubated with p21^CIP1, p27^KIP1, p16^INK4 and p45^SKP2. Equal protein loading was confirmed by a monoclonal actin antibody.
(§2) Cellular extracts were separated in 8-12% SDS PAGE gels and electrotransferred as described elsewhere (Finzer et al., Oncogene 19 (2000), 3235-3244; Soto et al., Oncogene 18 (1999), 3187-3198). The following antibodies were used: cyclin E (HE 12), cyclin D 1 (HD 11), cdk2 (M2), (D-12; Santa Cruz Biotechnology, Inc., Santa Cruz, USA), cdk4 (C-22), cdk6 (C-21), p27^KIP1 (C-19), (K25020), p45^SKP2 (N-19), HPV18-E7 (N-19) and E2F-1 (KH95) (Santa Cruz Biotechnology, Inc. Santa Cruz, USA), p21^CIP1 (C24420; Transduction Laboratories, Lexington, USA), pRB (NCL-RB; Novocastra, UK), p16^INK4 (15126E, Pharmingen, San Diego, USA) and HPV 16 E7 (ZYMED Lab. Inc., San Francisco, USA). Cyclin A was kindly provided by M. Pagano (Pagano et al., EMBO J. 11 (1992), 961-971). Equal protein transfer and loading was routinely checked by incubating the filters with a monoclonal actin antibody (ICN Biomedicals, Ohio, USA).
(§3) Western blot analysis. 50 μg of cellular protein was loaded on SDS-PAGE minigels. After electrotransfer, the filters were incubated with p21^CIP1, p27^KIP1, p16^INK4 and p45^SKP2. […]

[2] = tested on: pRb; test: Western blot of pRb in HeLa cells; conditions: 16 hours
Description: (§4) (B and C) Western blot analysis. 50 μg of protein were separated in 8% (for pRb) and 12% SDS-PAGE gels. After electrotransfer, the filters were incubated with pRb, E2F-1 (B) and (C) p53 specific antibodies. Equal protein loading was confirmed with a monoclonal actin antibody.
as §2
(§5) Western blot analysis: 50 μg of protein was separated in 8% (for pRb) and 12% SDS-PAGE gels. After electrotransfer, the filters were incubated with pRb, E2F-1 (f) and (g) p53 specific antibodies. […]

[3] = tested on: E2F-1; test: Western blot of E2F-1 in HeLa cells; conditions: 16 hours
Description: as §4, §2, §5

[4] = tested on: cyclin A; test: Western blot of cyclin A in HeLa cells; conditions: 16 hours
Description: (§6) 50 μg of protein were separated on 12% SDS-PAGE minigels. After electrotransfer, the filters were incubated with antibodies against cyclin D1, cyclin E, cyclin A or cdk2, cdk4 or cdk6 specific antibodies. Equal protein loading was confirmed by reincubating the filters with a monoclonal actin antibody.
as §2
(§7) 50 μg of protein was separated on 12% SDS-PAGE minigels. […]

[5] = tested on: cyclin E; test: Western blot of cyclin E in HeLa cells; conditions: 16 hours
Description: as §6, §2, §7

[6] = tested on: cdk2; test: Histone H1 kinase assay of cdk2 complexes immunoprecipitated from HeLa cells; conditions: for cdk2 kinase activity, time course: 6 mM sodium butyrate, 3, 6, 9, 12 and 16 hours; for cdk2 kinase activity (histone H1): 16 hours
From the text: (A) Autoradiography. Cdk2 complexes were immunoprecipitated from HeLa cells and assayed for their activity using histone H1 as substrate. (“[…]”: preimmune serum).
(§8) (B) Cdk2 activity after NaB application. Upper panel: Cdk 2 complexes were immunoprecipitated and assayed for their activity using histone H1 as substrate. Lower panels: Western blot analysis of the cdk 2 complexes which were precipitated, separated in a 12% SDS-PAGE gel and immunoblotted with specific antibodies used in panel A. Loading was verified by incubation with cdk 2 antibodies.
(§9) For cell fractionation, cell monolayers were washed twice with PBS and harvested by trypsinisation. Cell extract preparation and cdk2 activity assays were exactly done as described by Blomberg and Hoffmann, Mol. Cell. Biol. 19 (1999), 6183-6194. In addition, cdk2 was immunoprecipitated and analyzed by immunoblotting. Beads used for cdk2 kinase assay were washed 3 times with lysis buffer (Blomberg and Hoffmann, 1999), incubated with Laemmli sample buffer and boiled for 5 min. Supernatant was analyzed by SDS-PAGE gels. Immunoblotting was carried out with the following antibodies: p21^CIP1 (C24420) and p27^KIP1 (K25020; Transduction Laboratories) or HPV18-E7 (N-19; Santa Cruz, Inc.). Cdk2 specific antibodies or preimmune serum were kindly provided by I. Hoffmann (DKFZ, Heidelberg).
Autoradiography. Cdk2 complexes were immunoprecipitated from HeLa cells and assayed for their activity using histone H1 as substrate. (“PI”: preimmune serum).
Autoradiography. Cdk2 complexes were immunoprecipitated from HeLa cells and assayed for their activity as in (c). […] (Contr.): untreated cells harvested after 3, 6, 9, 12, and 16 hours.

[7] = tested on: cdk2; test: Western blot of cdk2 in HeLa cells
Description: as §6
(A) Western blot analysis. 75 μg of total cellular protein was loaded on a 12% SDS-PAGE gel. After electrotransfer, the filters were incubated with antibodies directed against HPV18 E7, p21^CIP1 (=p21), p27^KIP1 (=p27) and cdk2.
as §2, with “Equal protein transfer and loading was routinely checked by incubating the filters with a monoclonal actin antibody (ICN Biomedicals, Ohio, USA).” left out

[8] = tested on: p45^SKP2; test: Western blot of p45^SKP2 in HeLa cells; conditions: 16 hours
Description: as §1, §2, §3

[9] = tested on: cyclin-cdk2 complex; test: Western blot analysis of cdk2 immunoprecipitates from HeLa cells (p21, p27, E7 binding)
From the text: (B-E) Western blot analysis of the cdk2 complex. Cdk2 precipitates were separated in a 12% SDS-PAGE gel and immunoblotted with p21^CIP1 (B), p27^KIP1 (C) and HPV18 E7 specific antibodies.
as §8, §9
Western blot analysis of the cdk2 complex. Cdk2 precipitates were separated in a 12% SDS-PAGE gel and immunoblotted with p21^CIP1, p27^KIP1 and HPV 18 E7 specific antibodies. Equal loading was verified by incubation with cdk2 antibodies. PI: preimmune serum. (Contr.): untreated cells; (DMSO): DMSO control; (TSA): treated with 330 nM trichostatin A for 16 hours.

[10] = 330 nM trichostatin A, 16 hours

SMILES: CCCC(=O)[O-].[Na+] [sodium butyrate]
- p27^KIP1 protein level ([1]; 6 mM sodium butyrate): significantly induced
- pRb protein level ([2]; 6 mM sodium butyrate): totally degraded
- E2F-1 level ([3]; 6 mM sodium butyrate): no consequences on gene expression and translation
- cyclin A protein level ([4]; 6 mM sodium butyrate): selectively downregulates
- cyclin E protein level ([5]; 6 mM sodium butyrate): strongly increased
- cdk2 kinase activity, time course [6]: still active after 9 hours, but abruptly declined 3 hours later
- cdk2 kinase activity, time course ([6]; listed as NaB): remained active up to 9 hours, but immediately declined between 12-16 hours
- cdk2 kinase activity (histone H1) ([6]; 6 mM sodium butyrate, vs untreated control): completely abolished
- cdk2 expression ([7]; 6 mM sodium butyrate, 16 hours): neither the cyclin-dependent kinase 2 (cdk2) nor cdk4 or cdk6 revealed any significant influence on their expression rates
- amount of cdk2, time course ([7]; NaB time course): completely unaffected
- p45^SKP2 protein level ([8]; 6 mM sodium butyrate): strongly suppressed
- E7 in the cdk2 complex ([9]; 6 mM sodium butyrate, 16 hours): completely disappeared
- association of p21^CIP1 and p27^KIP1 with the cdk2 complex ([9]; 6 mM sodium butyrate, 16 hours): both CK1s became associated with the cdk2 complex
- E7 bound to cyclin-cdk2 complexes, time course ([9]; NaB time course): completely disappeared between 12-16 hours
- association of p21^CIP1 and p27^KIP1 with the cdk2 complex, time course ([9]; NaB time course): threshold amounts of both CKIs became associated with the cdk2 complex (between 12-16 hours)

SMILES: CC(/C=C/C(=O)NO)=C\[C@@H](C)C(=O)c1ccc(N(C)C)cc1 [trichostatin A]
- p27^KIP1 protein level ([1]; 330 nM trichostatin A): Upregulates
- pRb protein level ([2]; 330 nM trichostatin A): Mediates pRB Degradation
- E2F-1 level ([3]; 330 nM trichostatin A): without Affecting
- cyclin A protein level ([4]; 330 nM trichostatin A): Downregulates
- cyclin E protein level ([5]; 330 nM trichostatin A): Upregulates
- cdk2 kinase activity (histone H1) ([6]; 330 nM trichostatin A): Suppresses
- p45^SKP2 protein level ([8]; 330 nM trichostatin A, listed as Trichostatin A): Suppresses
- E7 binding to the cdk2 complex [9, 10]: Loss of E7 Binding
- interaction of p21^CIP1 and p27^KIP1 with cdk2 [9, 10]: Enhanced Interaction
